Data on six compounds can be found in ChEMBL document CHEMBL4304828, “PROTAC-Mediated Degradation of Estrogen Receptor in the Treatment of Cancer” (ACS Med Chem Lett, 2019).

Test [1] has as its target T1, von Hippel-Lindau disease tumor suppressor/Estrogen receptor (Homo sapiens, UniProt P03372+P40337). As to the kind of experiment: Induction of VHL E3 ligase mediated ERalpha degradation in human MCF7 cells assessed as downregulation of ERalpha expression by cell-based immunofluorescence assay.
Target sequence in this assay (P40337 whole entry, one chain of several): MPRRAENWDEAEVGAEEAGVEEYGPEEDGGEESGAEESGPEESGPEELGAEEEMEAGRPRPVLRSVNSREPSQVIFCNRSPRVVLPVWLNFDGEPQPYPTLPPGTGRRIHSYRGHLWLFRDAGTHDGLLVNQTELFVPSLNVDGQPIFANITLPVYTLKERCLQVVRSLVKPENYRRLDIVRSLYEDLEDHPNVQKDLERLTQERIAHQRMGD
The target in test [2] is T1, von Hippel-Lindau disease tumor suppressor/Estrogen receptor. The test can be described thus: Induction of VHL E3 ligase mediated ERalpha degradation in human MCF7 cells at 0.3 uM by cell-based immunofluorescence assay.
Target sequence in this assay (P40337 whole entry, looked up, one chain of several): as the sequence (P40337 whole entry, one chain of several) above
For another test, the target named is T2, Estrogen receptor (Homo sapiens, UniProt P03372).
T2 sequence (P03372 whole entry): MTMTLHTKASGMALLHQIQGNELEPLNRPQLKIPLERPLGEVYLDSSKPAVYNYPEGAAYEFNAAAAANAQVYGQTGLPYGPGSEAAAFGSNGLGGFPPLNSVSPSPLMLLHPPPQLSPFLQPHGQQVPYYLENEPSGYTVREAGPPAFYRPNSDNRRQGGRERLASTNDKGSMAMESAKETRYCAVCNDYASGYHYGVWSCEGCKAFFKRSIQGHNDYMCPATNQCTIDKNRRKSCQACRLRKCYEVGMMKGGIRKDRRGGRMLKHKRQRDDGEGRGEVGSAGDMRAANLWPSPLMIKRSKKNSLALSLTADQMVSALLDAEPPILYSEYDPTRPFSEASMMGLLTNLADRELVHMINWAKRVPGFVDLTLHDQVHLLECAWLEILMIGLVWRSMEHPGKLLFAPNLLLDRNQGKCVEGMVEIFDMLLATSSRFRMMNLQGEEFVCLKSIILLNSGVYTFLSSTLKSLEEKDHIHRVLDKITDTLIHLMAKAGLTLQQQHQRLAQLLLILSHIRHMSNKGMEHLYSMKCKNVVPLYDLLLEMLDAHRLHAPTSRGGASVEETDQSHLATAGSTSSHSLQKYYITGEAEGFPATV
As to the kind of experiment: Displacement of fluorescent ligand from human recombinant GST-tagged ER-alpha ligand binding domain (307 to 554 residues) incubated for 15 mins by TR-FRET based competitive assay. On the technique in general: In TR-FRET formats the signal depends on donor and acceptor labels being close together.

pIC50: −log10 of the molar value.

As for `Cc1ncsc1-c1ccc(CNC(=O)[C@@H]2C[C@@H](O)CN2C(=O)[C@@H](NC(=O)COCCOCCC(F)(F)CCOc2cc(F)c([C@@H]3c4[nH]c5ccccc5c4C[C@@H](C)N3CC(C)(C)F)c(F)c2)C(C)(C)C)cc1`, in test [1], the pIC50 is 9.10. For the same compound, the Activity in test [2] was above 90%.
`Cc1ncsc1-c1ccc(CNC(=O)[C@@H]2C[C@@H](O)CN2C(=O)[C@@H](NC(=O)COCCCOCCOc2cc(F)c([C@@H]3c4[nH]c5ccccc5c4C[C@@H](C)N3CC(C)(C)F)c(F)c2)C(C)(C)C)cc1`: the pIC50 in test [1] is 9.40. Moreover, the Activity in test [2] is above 90%.
The corresponding values for `Cc1ncsc1-c1ccc(CNC(=O)[C@@H]2C[C@@H](O)CN2C(=O)[C@@H](NC(=O)COCCCOCCCOc2cc(F)c([C@@H]3c4[nH]c5ccccc5c4C[C@@H](C)N3CC(C)(C)F)c(F)c2)C(C)(C)C)cc1` are 9.40 to 9.52 and above 90%.
In the case of `Cc1ncsc1-c1ccc([C@H](C)NC(=O)[C@@H]2C[C@@H](O)CN2C(=O)[C@@H](NC(=O)COCCOCCCCCOc2cc(F)c([C@@H]3c4[nH]c5ccccc5c4C[C@@H](C)N3CC(C)(C)F)c(F)c2)C(C)(C)C)cc1`, the negative logarithm of the IC50 (pIC50) at Estrogen receptor was 9.30; in test [1] it was 9.22. In test [2], this compound gave an Activity above 90%.
For the compound `Cc1ncsc1-c1ccc([C@H](C)NC(=O)[C@@H]2C[C@@H](O)CN2C(=O)[C@@H](NC(=O)COCCOCCOCCOc2cc(F)c([C@@H]3c4[nH]c5ccccc5c4C[C@@H](C)N3CC(C)(C)F)c(F)c2)C(C)(C)C)cc1`, the pIC50 in test [1] was 9.52. For the same compound, the Activity in test [2] was above 90%.
`C[C@]12CC[C@@H]3c4ccc(O)cc4C[C@@H](CCCCCCCCC[S+]([O-])CCCC(F)(F)C(F)(F)F)[C@H]3[C@@H]1CC[C@@H]2O` (some centres not stated) gave an Activity in test [2] of 100%.

For orientation: pIC50 means −log10 of the IC50, conventionally taken in molar units.
